Test results from patent US20090247572A1, “AGENT FOR TREATING ATRIAL FIBRILLATION” (priority 2005, published 2009).

Assays:
[1] = system: Canine Cardiac Atrioventricular Node Function; test: Test of the Suppression of Canine Cardiac Atrioventricular Node Function; format: in vivo; conditions: anesthetized male beagle dogs, 0.1 mg/kg intravenously, 1 hour after administration (compound A), 30 minutes (Verapamil), vs control group; for change in AH intervals in the His bundle electrocardiograms during high-frequent stimulation by pacing: pacing the right atrium at intervals of 400 msec and 300 msec
Source text: Male beagle dogs were employed in this test. Under halothane anesthesia, an electrode catheter was inserted from the left femoral artery and the front end thereof was placed in the non-coronary cusp of His bundle to thereby record the His bundle electrocardiogram. A pacing catheter was inserted via a sheath introducer placed in the right femoral vein and the front end thereof was fixed to the inner wall of the right atrium. Electrodes for recording body surface electrocardiogram were attached to the four limbs and thus the second-lead electrocardiogram was recorded. A drug was administered via the sheath introducer placed in the left femoral vein.
Verapamil, which was used as a comparative compound, was intravenously administered in a dose of 0.1 mg/kg. A group to which a vehicle was administered was referred to as the control group.
After the stabilization period following the surgical operation, AH intervals in the His bundle electrocardiograms were measured in the sinus rhythm and during pacing the right atrium at intervals of 400 msec and 300 msec. […] In the case of the comparative drug Verapamil, the AH intervals in the His bundle electrocardiogram as described above were measured before the administration and 30 minutes after the administration. The effect of a compound was expressed in the change in the AH intervals in the individual His bundle electrocardiograms in the sinus rhythm and during pacing the right atrium at intervals of 400 msec and 300 msec from the value before the administration of the drug and the data were compared with the data of the control group (Student's t-test) at a significant level of 5%. The term “AH interval in His bundle electrocardiogram” means the period of time wherein an electrical excitation generated at the atrium passes the atrioventricular node and arrives at His bundle.

[2] = system: Anesthetized Swine Ventricular Rate; test: Test of Measurement of Anesthetized Swine Ventricular Rate; format: in vivo, pigs (Landrace/White F1)
Description: Male pigs (Landrace/White F1) were employed in this test. Under pentbarbital anesthesia, a thoracotomy was performed at the fourth right intercostal space and an electrode for electrical stimulation was attached to the right atrial surface thus exposed. Electrodes for recording body surface electrocardiogram were attached to the four limbs and thus the second-lead electrocardiogram was recorded. A catheter for drug administration was placed in the right femoral vein. Compound A was intravenously administered in a dose of 0.3 mg/kg. Atenolol, which was a β-blocker used as a comparative compound, was intravenously administered in a dose of 1 mg/kg. A group to which a vehicle was administered was referred to as the control group. A 50 Hz burst stimulation was applied to the right atrium via the electrode for electrical stimulation and the ventricular rate per minute was measured as R-waves in the body surface electrocardiogram. Thirty minutes after the administration of compound A or the comparative drug, a 50 Hz burst stimulation was applied again to the right atrium and then the R-waves per minute in the body surface electrocardiogram were measured.

Row | SMILES | change in AH intervals in the His bundle electrocardiograms during high-frequent stimulation by pacing [1] | change in AH interval in the His bundle electrocardiogram in the sinus rhythm [1] | change in ventricular rate (R waves per minute) during the 50 Hz burst stimulation ([2]; anesthetized male pigs, 0.3 mg/kg intravenously, 30 minutes after administration, 50 Hz burst stimulation of right atrium, vs control group) | efficacy relative to Atenolol in controlling the ventricular rate ([2]; anesthetized pigs, compound A 0.3 mg/kg vs Atenolol 1 mg/kg intravenously)
1 | COc1cc2c(cc1OC)CC(=O)N(CCCN(C)C[C@H]1Cc3cc(OC)c(OC)cc31)CC2 [Ivabradine] | no significant difference at a significant level of 5% was observed | do not suppress the atrioventricular node function in the sinus rhythm |  | 
2 | COc1ccc(CCN(C)CCCC(C#N)(c2ccc(OC)c(OC)c2)C(C)C)cc1OC (centres unmarked) [Verapamil] | significantly prolonged | significantly prolonged |  | 
3 | COc1cc2c(cc1OC)CN(C(=O)[C@@H]1CCCN(CCNC(=O)c3ccc(F)cc3)C1)CC2 [compound A, (−)-N-{2-[(R)-3-(6,7-dimethoxy-1,2,3,4-tetrahydroisoquinoline-2-carbonyl)piperidino]ethyl}-4-fluorobenzamide monophosphate] | prolonged at a significant level of 1% | no effect | significantly decreases | stronger by thrice or more
